In ChEMBL document CHEMBL1134086, “Discovery of potent and selective phenylalanine derived CCR3 receptor antagonists. Part 2” (Bioorg Med Chem Lett, 2001):

What was measured:
[1] = molecular target: T1, C-C chemokine receptor type 3 (Homo sapiens, UniProt P51677); test: Antagonist activity against C-C chemokine receptor type 3; type: functional
T1 sequence (P51677 whole entry): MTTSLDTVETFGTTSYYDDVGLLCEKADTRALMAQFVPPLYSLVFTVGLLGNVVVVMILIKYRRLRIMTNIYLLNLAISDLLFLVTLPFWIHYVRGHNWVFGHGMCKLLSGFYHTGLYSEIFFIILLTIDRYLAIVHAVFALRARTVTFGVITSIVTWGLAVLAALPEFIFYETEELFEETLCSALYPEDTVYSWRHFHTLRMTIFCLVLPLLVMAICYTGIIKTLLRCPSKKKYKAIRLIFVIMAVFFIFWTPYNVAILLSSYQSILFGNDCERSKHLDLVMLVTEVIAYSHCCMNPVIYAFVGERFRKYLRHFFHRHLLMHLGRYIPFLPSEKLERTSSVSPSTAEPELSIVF

Homo sapiens = species on record: Homo sapiens; test: Ability to block the eotaxin induced intracellular calcium mobilization in primary human eosinophils was determined; type: functional

Row | Compound | IC50 [1] | IC50 (Homo sapiens)
1 | C=C(NC(=O)[C@H](Cc1ccc([N+](=O)[O-])cc1)NC(=O)c1cccc2ccccc12)C(=O)OCC | 350 nM | 
2 | C[C@@H](NC(=O)[C@H](Cc1ccc([N+](=O)[O-])cc1)NC(=O)c1cccc2ccccc12)C(=O)OC(C)(C)C | 20 nM | 
3 | C[C@H](NC(=O)[C@H](Cc1ccncc1)NC(=O)c1cccc2ccccc12)C(=O)Nc1ccc(-c2ccccc2)cc1 | 600 nM | 
4 | Cc1ccc(C(=O)N[C@@H](Cc2ccc(Cl)cc2)C(=O)N[C@@H](C)C(=O)Nc2ccc(Cl)cc2)c(C)c1 | 45 nM | 
5 | COc1ccc(NC(=O)[C@H](C)NC(=O)[C@H](Cc2cscn2)NC(=O)c2cccc3ccccc23)cc1 | 500 nM | 
6 | O=C(N[C@@H](Cc1ccc([N+](=O)[O-])cc1)c1nccs1)c1cccc2ccccc12 | 32000 nM | 
7 | O=C(N[C@@H](Cc1ccc([N+](=O)[O-])cc1)c1nc(C(=O)N2CCc3ccccc3C2)cs1)c1cccc2ccccc12 | 12500 nM | 
8 | O=C(Nc1ccccc1)c1csc([C@H](Cc2ccc([N+](=O)[O-])cc2)NC(=O)c2cccc3ccccc23)n1 | 7700 nM | 
9 | C[C@H](NC(=O)[C@H](Cc1ccc([N+](=O)[O-])cc1)NC(=O)c1cccc2ccccc12)C(=O)Nc1ccccc1 | 190 nM | 
10 | COc1ccc(NC(=O)[C@H](C)NC(=O)[C@H](Cc2ccncc2)NC(=O)c2cccc3ccccc23)cc1 | > 1220 nM | 
11 | CCOC(=O)[C@@H](C)NC(=O)[C@H](Cc1ccc([N+](=O)[O-])cc1)NC(=O)c1cccc2ccccc12 | 3 nM | 
12 | O=C(N[C@@H](Cc1ccc([N+](=O)[O-])cc1)C(=O)N[C@H](C(=O)Nc1ccccc1)c1ccccc1)c1cccc2ccccc12 | 116 nM | 
13 | C[C@H](NC(=O)[C@H](Cc1ccc(Cl)cc1)NC(=O)c1cccc2ccccc12)C(=O)Nc1cccnc1 | 27 nM | 
14 | O=C(N[C@@H](Cc1ccc([N+](=O)[O-])cc1)C1=NCCO1)c1cccc2ccccc12 | 563 nM | 600 nM
15 | O=C(CNC(=O)[C@H](Cc1ccc([N+](=O)[O-])cc1)NC(=O)c1cccc2ccccc12)Nc1ccccc1 | 400 nM | 
16 | CCOC(=O)C1COC([C@H](Cc2ccc([N+](=O)[O-])cc2)NC(=O)c2cccc3ccccc23)=N1 (some centres not stated) | 213 nM | 
17 | COc1ccccc1NC(=O)[C@H](C)NC(=O)[C@H](Cc1ccc(C#N)cc1)NC(=O)c1cccc2ccccc12 | 125 nM | 
18 | CCNC(=O)C(C)NC(=O)[C@H](Cc1ccc([N+](=O)[O-])cc1)NC(=O)c1cccc2ccccc12 (some centres not stated) | 666 nM | 
19 | C[C@H](NC(=O)[C@H](Cc1cscn1)NC(=O)c1cccc2ccccc12)C(=O)Nc1ccc(Cl)cc1 | 800 nM | 
20 | COC(=O)[C@H](Cc1ccc([N+](=O)[O-])cc1)NC(=O)c1cccc2ccccc12 |  | 38 nM

Row | Compound | IC50 [1] | IC50 (Homo sapiens)
21 | C[C@@H](C(=O)Nc1ccccc1)N(C)C(=O)[C@H](Cc1ccc([N+](=O)[O-])cc1)NC(=O)c1cccc2ccccc12 | 65 nM | 
22 | CC(NC(=O)[C@H](Cc1ccc([N+](=O)[O-])cc1)NC(=O)c1cccc2ccccc12)C(=O)NCc1ccccc1 (some centres not stated) | 300 nM | 
23 | COc1ccc(NC(=O)[C@H](C)NC(=O)[C@H](CC2CCCCC2)NC(=O)c2cccc3ccccc23)cc1 | 700 nM | 
24 | CC(NC(=O)[C@H](Cc1ccc([N+](=O)[O-])cc1)NC(=O)c1cccc2ccccc12)C(=O)N1CCCC1 (some centres not stated) | 1130 nM | 
25 | CCOC(=O)c1csc([C@H](Cc2ccc([N+](=O)[O-])cc2)NC(=O)c2cccc3ccccc23)n1 | 663 nM | 
26 | CCOC(=O)[C@H](C)NC(=O)[C@H](Cc1ccc([N+](=O)[O-])cc1)NC(=O)c1cccc2ccccc12 | 383 nM | 
27 | COc1ccc(NC(=O)[C@H](C)NC(=O)[C@H](Cc2ccc(Cl)cc2)NC(=O)c2cccc3ccccc23)cc1 | 45 nM | 
28 | CCOC(=O)c1coc([C@H](Cc2ccc([N+](=O)[O-])cc2)NC(=O)c2cccc3ccccc23)n1 | 500 nM | 
29 | COc1ccc(C[C@H](NC(=O)c2cccc3ccccc23)C(=O)N[C@@H](C)C(=O)Nc2ccccc2OC)cc1 | 15 nM | 
30 | COc1ccc(C[C@H](NC(=O)c2cccc3ccccc23)C(=O)N[C@@H](C)C(=O)Nc2ccc(C#N)cc2)cc1 | 250 nM | 
31 | CCNC(=O)c1csc([C@H](Cc2ccc([N+](=O)[O-])cc2)NC(=O)c2cccc3ccccc23)n1 | 18000 nM | 
32 | COc1ccc(NC(=O)[C@H](C)NC(=O)[C@H](Cc2ccc(C#N)cc2)NC(=O)c2cccc3ccccc23)cc1 | 90 nM | 
33 | C[C@H](NC(=O)[C@H](Cc1ccc(Cl)cc1)NC(=O)c1cccc2ccccc12)C(=O)Nc1ccccc1 | 5 nM | 15 nM
34 | C[C@H](NC(=O)[C@H](Cc1ccc([N+](=O)[O-])cc1)NC(=O)c1cccc2ccccc12)C(=O)N(C)c1ccccc1 | 600 nM | 
35 | O=C(N[C@@H](Cc1ccc([N+](=O)[O-])cc1)c1cnco1)c1cccc2ccccc12 (racemic) | 22500 nM | 
36 | O=C(N[C@@H](Cc1ccc([N+](=O)[O-])cc1)c1nnco1)c1cccc2ccccc12 (racemic) | > 33000 nM | 
37 | O=C(N[C@@H](Cc1ccc([N+](=O)[O-])cc1)c1ncco1)c1cccc2ccccc12 (racemic) | > 33000 nM | 
38 | CCn1ccnc1[C@H](Cc1ccc([N+](=O)[O-])cc1)NC(=O)c1cccc2ccccc12 (racemic; form 1) | > 33000 nM | 
39 | CCn1ccnc1[C@H](Cc1ccc([N+](=O)[O-])cc1)NC(=O)c1cccc2ccccc12 (racemic; form 2) | > 33000 nM | 
40 | CCn1ccnc1[C@H](Cc1ccc([N+](=O)[O-])cc1)NC(=O)c1cccc2ccccc12 (racemic; form 3) | 17000 nM | 
